From EP4620956A1, “PARP1 INHIBITORS” (Zhejiang Yangli Pharmaceutical Technology Co., Ltd., priority 2022, dated 2024)
Read-outs that look alike come from different tables or passages of the source.

How the values were obtained:
MDA-MB-436 = experiment: Anti-proliferative activity (CellTiter-Glo, 7 days), MDA-MB-436; type: cell-based, human; settings: for IC50: Homo sapiens, MDA-MB-436, 168 h, BRCA1-mutated, 7 days, read-out: MDA-MB-436 IC50; for BRCA1 mutation/WT selectivity fold: MDA-MB-231 vs MDA-MB-436
PARP1 [1] = biological target: T1, PARP1 (Homo sapiens, UniProt P09874); experiment: DNA trapping capability of PARP1 (HTRF); type: biochemical
T1 construct: purchased BPS 80501

PARP1 [2] = biological target: T1, PARP1; experiment: Inhibition of PARP1 enzyme activity (chemiluminescence); type: biochemical; settings: for PARP1/2 selectivity fold: PARP2 vs PARP1
DLD-1 BRCA2^-/- = experiment: Anti-proliferative activity (CellTiter-Glo, 7 days), DLD-1 BRCA2-/-; type: cell-based, human; settings: for BRCA2 mutation/WT selectivity fold: DLD-1 WT vs DLD-1 BRCA2^-/-; for IC50: Homo sapiens, DLD-1, 168 h, BRCA2-mutated, 7 days
A549 PARP2-KO cell line = experiment: Cellular PARylation inhibition, high-content imaging, PARP2-KO; type: cell-based; settings: PARylation at the cellular level; for IC50: Homo sapiens, A549, read-out: PARP2-KO IC50
PARP2 [3] = biological target: T2, PARP2 (Homo sapiens, UniProt Q9UGN5); experiment: DNA trapping capability of PARP2 (HTRF); type: biochemical
T2 construct: purchased BPS 80502

DLD-1 WT = experiment: Anti-proliferative activity (CellTiter-Glo, 7 days), DLD-1 WT; type: cell-based, human; settings: for inhibition on cell proliferation at the highest concentration: BRCA2-normal DLD-1 cell line, 10 µM; for IC50: Homo sapiens, DLD-1, 168 h, BRCA2-normal, 7 days
Experimental: The anti-proliferation experiment of the compounds on tumour cells adopted the most widely used ATP concentration-based detection method at present. MDA-MB-231 and MDA-MB-436 cell lines were obtained from ATCC, DLD-1 human colourectal adenocarcinoma epithelial cells and DLD-1 BRCA2^-/- cells were obtained from Horizon, and the cells were revived. After the cells were stable, the cells were collected. When the viable cell count exceeded 90%, 450-500 cells were seeded into a 384-well plate. The next day, the example compounds with serially diluted concentrations were added. Only buffer was added to the Max well, and 50 µM AZD2281 was added to the Min well. The plate was incubated for 7 days, and on the eighth day, CellTiter-Glo® reagent (Promega, G7573) was added. The plate was incubated at room temperature for 30 minutes, and the values were read on Envision (PE). The inhibition rate was calculated using the fluorescence values from the Max and Min wells, and the dose-response curve was fitted using the analysis software GraphPad Prism 5 to obtain the IC50 value of each compound for the enzyme activity.

A549 WT = experiment: Cellular PARylation inhibition, high-content imaging, A549 WT; type: cell-based; settings: Homo sapiens, PARylation at the cellular level
Experimental: The inhibitory effect of the compounds on PARP1/PARP2 enzyme activity at the cellular level was detected using high-content imaging. A549 WT, PARP1-KO and PARP2-KO cell lines were established in-house, and the cells were revived. After the cells were stable, a sufficient number of cells were collected and 100 µL of the cell suspension was seeded into a 96-well plate. The next day, the example compounds with serially diluted concentrations were added. […] The plate was incubated for 1.5 hours (A549 WT and PARP2-KO cell lines) or 2 hours (PARP1-KO cell line). After removing the supernatant, 0.4 mM H2O2 was added and incubation was carried out for 10 minutes (A549 WT and PARP2-KO cell lines) or 1.5 mM H2O2 was added and incubation was carried out for 15 minutes (PARP1-KO cell line) to induce extensive cellular DNA damage. After removing the supernatant, the cells were fixed with 4% paraformaldehyde for 20 minutes, followed by treatment with 0.5% Triton X-100 for 20 minutes to increase the permeability of the cell membrane. After that, the cells were incubated with 3% BSA for 1 hour to prevent non-specific binding. […] The cell nuclei were stained for 30 minutes by adding 50 µL DAPI (invitrogen, R37606). After washing twice with PBS, images were acquired on OPERETTA CLS™ (PE) by scanning the cells under a 20x water objective lens in non-confocal mode, with 5 fields of view captured per well. […] The inhibition rate was calculated using the fluorescence values from the Max and Min wells, and the dose-response curve was fitted using the analysis software GraphPad Prism 5 to obtain the IC50 value of each compound for the enzyme activity.

PARP2 [4] = biological target: T2, PARP2; experiment: Inhibition of PARP2 enzyme activity (chemiluminescence); type: biochemical
MDA-MB-231 = experiment: Anti-proliferative activity (CellTiter-Glo, 7 days), MDA-MB-231; type: cell-based, human; settings: for IC50: Homo sapiens
A549 PARP1-KO cell lines = experiment: Cellular PARylation inhibition, high-content imaging, PARP1-KO; type: cell-based; settings: for inhibition on the enzyme activity at the highest concentration: A549 PARP1-KO cell lines, 40 µM; for IC50: Homo sapiens, A549, PARylation at the cellular level
[5] = MDA-MB-231, 168 h, BRCA1-normal, 7 days, read-out: MDA-MB-231 IC50

T1 sequence (P09874 whole entry): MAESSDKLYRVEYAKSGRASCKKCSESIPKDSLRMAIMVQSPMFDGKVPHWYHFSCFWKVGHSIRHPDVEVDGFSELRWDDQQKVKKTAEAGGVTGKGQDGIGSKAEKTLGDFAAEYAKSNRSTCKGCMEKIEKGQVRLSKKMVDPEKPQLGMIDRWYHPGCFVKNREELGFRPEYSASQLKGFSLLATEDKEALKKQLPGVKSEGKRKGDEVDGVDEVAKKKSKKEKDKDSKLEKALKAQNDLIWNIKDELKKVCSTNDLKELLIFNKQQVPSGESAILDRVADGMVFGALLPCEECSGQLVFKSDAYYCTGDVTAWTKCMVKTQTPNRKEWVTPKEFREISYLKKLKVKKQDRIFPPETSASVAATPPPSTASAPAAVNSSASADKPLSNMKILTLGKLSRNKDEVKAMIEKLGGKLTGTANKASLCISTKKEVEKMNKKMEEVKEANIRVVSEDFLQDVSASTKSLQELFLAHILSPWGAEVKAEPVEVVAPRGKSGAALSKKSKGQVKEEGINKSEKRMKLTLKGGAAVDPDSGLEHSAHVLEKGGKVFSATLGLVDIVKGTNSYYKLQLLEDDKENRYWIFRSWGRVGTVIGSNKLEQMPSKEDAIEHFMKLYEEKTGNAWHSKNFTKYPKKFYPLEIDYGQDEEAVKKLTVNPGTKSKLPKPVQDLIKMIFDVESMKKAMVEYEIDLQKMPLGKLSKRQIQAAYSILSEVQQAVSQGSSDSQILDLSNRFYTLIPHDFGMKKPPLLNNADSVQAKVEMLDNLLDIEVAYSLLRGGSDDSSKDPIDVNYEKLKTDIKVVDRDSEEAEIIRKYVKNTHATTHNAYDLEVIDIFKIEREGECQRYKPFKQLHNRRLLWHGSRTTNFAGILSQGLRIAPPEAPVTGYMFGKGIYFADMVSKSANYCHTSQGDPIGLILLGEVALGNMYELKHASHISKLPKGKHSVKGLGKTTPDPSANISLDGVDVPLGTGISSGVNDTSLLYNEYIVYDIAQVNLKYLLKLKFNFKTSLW
T2 sequence (Q9UGN5 whole entry): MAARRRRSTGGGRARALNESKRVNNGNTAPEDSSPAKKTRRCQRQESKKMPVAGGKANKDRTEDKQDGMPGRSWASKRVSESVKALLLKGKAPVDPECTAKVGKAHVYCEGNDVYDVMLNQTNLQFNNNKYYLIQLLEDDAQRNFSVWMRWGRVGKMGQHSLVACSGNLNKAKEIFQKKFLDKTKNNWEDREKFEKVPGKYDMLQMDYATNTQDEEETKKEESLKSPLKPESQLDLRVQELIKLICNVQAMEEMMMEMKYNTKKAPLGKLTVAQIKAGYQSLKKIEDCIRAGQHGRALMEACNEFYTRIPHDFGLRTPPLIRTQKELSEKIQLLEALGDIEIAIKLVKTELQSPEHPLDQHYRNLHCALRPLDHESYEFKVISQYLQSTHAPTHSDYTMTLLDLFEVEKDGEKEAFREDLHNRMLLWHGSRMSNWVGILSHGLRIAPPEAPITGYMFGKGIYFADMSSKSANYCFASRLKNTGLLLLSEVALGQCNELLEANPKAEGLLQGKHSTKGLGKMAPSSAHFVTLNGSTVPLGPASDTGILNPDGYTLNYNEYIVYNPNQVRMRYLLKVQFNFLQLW

PARP1/2 selectivity fold (PARP1 [1]) [fold] | Structure (SMILES) | IC50 (MDA-MB-436) [nM] | BRCA1 mutation/WT selectivity fold (MDA-MB-436) | EC50 (PARP1 [1]) [nM] | IC50 (PARP1 [2]) [nM] | PARP1/2 selectivity fold (PARP1 [2]) [fold] | BRCA2 mutation/WT selectivity fold (DLD-1 BRCA2^-/-) | IC50 (DLD-1 BRCA2^-/-) [nM] | IC50 (A549 PARP2-KO cell line) [nM] | PARP1 KO/PARP2 KO selectivity fold (A549 PARP2-KO cell line) [fold] | EC50 (PARP2 [3]) [nM] | inhibition on cell proliferation at the highest concentration (DLD-1 WT) | IC50 (DLD-1 WT) [µM] | IC50 (A549 WT) [nM] | IC50 (PARP2 [4]) [nM] | inhibition on cell proliferation at the highest concentration (MDA-MB-231; BRCA1-normal MDA-MB-231 cell line, 10 µM) | IC50 (MDA-MB-231; [5]) [µM] | inhibition on the enzyme activity at the highest concentration (A549 PARP1-KO cell lines) | IC50 (A549 PARP1-KO cell lines) [µM] | IC50 (MDA-MB-231; BRCA1-normal MDA-MB-231 cell line, read-out: IC50) [µM]
 | CCc1c(N)c2ncc(CN3CCN(c4ccc(C(=O)NOC)nc4F)CC3)cc2[nH]c1=O [Example 2, 5-(4-((8-Amino-7-ethyl-6-oxo-5,6-dihydro-1,5-naphthyridin-3-yl)methyl)piperazin-1-yl)-6-fluoro-N-methoxypicolinamide] | 5.74 | >1,742 fold | 3.73 | 0.39 | 44 | >1,162 fold | 8.62 | 61.7 | >648 | 338 | no detectable inhibition | > 10 | 10.5 | 17 | no detectable inhibition | > 10 | no detectable inhibition | > 40 | 
64 | CCc1c(N)c2ncc(CN3CCN(c4ccc(C(=O)NC)nc4F)CC3)cc2[nH]c1=O [Example 3, 5-(4-((8-Amino-7-ethyl-6-oxo-5,6-dihydro-1,5-naphthyridin-3-yl)methyl)piperazin-1-yl)-6-fluoro-N-methylpicolinamide] | 1.27 | 5,828 fold | 3.87 | 0.41 | 21 | >1,972 fold | 5.07 | 16.2 | >2468 | 249 | no detectable inhibition | > 10 | 5.9 | 8.7 |  | 7.4 | no detectable inhibition | > 40 | 7.4
